Laboratory results published in paper PMC12486385 (Virus Evolution, 2025).
No end group written: not given here.

B1: ORF1 NLSn_B peptide (TTDoV ORF1 residues 48-57, predicted monopartite cNLS) (peptide)
peptide: YGRRRKVRRR
modifications: also: FITC-tagged, end not given here

Legend:
[1] = test system: NTRs (IMP⍺1/2/3/5/7 and IMPβ1/2/3); assay: Fluorescence polarization; format: binding, human; mouse (IMP⍺2); conditions: FP; poor peptide solubility
[2] = Peptide precipitation / solubility under assay conditions; format: physicochemical
[3] = biological target: human importin beta 1 (hIMPβ1) (human, UniProt Q14974 1-876); assay: fluorescence polarisation
Chain of human importin beta 1 (hIMPβ1) (Q14974 whole entry): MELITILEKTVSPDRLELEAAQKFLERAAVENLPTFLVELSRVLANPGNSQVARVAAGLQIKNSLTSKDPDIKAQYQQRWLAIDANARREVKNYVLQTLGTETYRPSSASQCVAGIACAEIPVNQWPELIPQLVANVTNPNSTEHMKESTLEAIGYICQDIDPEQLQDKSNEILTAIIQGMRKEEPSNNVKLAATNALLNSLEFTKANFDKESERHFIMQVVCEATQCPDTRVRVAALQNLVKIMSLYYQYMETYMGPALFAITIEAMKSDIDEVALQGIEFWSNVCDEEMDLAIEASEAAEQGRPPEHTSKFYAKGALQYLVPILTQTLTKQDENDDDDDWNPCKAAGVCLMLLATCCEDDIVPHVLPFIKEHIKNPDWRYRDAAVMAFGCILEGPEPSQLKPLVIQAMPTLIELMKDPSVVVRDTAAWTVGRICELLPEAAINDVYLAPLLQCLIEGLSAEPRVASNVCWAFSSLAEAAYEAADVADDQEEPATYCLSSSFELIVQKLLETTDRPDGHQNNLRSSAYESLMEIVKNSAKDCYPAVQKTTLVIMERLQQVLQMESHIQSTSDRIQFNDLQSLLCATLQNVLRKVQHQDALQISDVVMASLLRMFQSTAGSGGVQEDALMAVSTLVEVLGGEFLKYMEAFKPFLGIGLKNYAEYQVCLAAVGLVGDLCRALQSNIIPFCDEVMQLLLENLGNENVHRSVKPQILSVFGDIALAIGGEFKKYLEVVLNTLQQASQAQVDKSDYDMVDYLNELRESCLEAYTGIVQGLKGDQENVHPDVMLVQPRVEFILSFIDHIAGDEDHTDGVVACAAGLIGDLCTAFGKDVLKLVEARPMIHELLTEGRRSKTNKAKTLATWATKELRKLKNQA

Molecule | interaction with NTRs (in words) [1] | precipitation ([2]; EMSA conditions, 10 μM FITC-peptide, TB buffer) | solubility (in words) ([2]; FP conditions, 10 nM FITC-peptide, SEC buffer pH 8) | binding result [3]
27-RRWRRRPRRRRRPYRRRPYRRYGRRRKVRRR-57 [ORF1 NLSn] | no interaction could be detected | consistently precipitated, suggesting poor solubility under assay conditions | poor peptide solubility | –
B1 | – | – | – | binds
